Laboratory results from publication PMC3352175, “Non-coding nucleotides and amino acids near the active site regulate peptide deformylase expression and inhibitor susceptibility in Chlamydia trachomatis” (Microbiology, 2011).

Molecular target: T1, chlamydial PDF (cPDF), peptide deformylase
T1 construct: gene def; C-terminal His6 tag (pET21), expressed in ArcticExpress E. coli, purified on TALON resin
Assay: TNBSA end-point deformylation assay (A335), Lineweaver-Burk
Format: biochemical, Chlamydia trachomatis
Conditions: fMAS substrate; 50 mM HEPES pH 7.2, 10 mM NaCl, 37 °C, 10 min; mode not stated; read-out: Wild-type
Text: TNBSA end-point deformylation assay (A335), Lineweaver-Burk on chlamydial PDF (cPDF), peptide deformylase

SMILES: CNC(=O)[C@H](Cc1c[nH]c2ccccc12)NC(=O)[C@@H](CC(=O)NO)CC(C)C [GM6001, N-[(2R)-2-(hydroxamidocarbonylmethyl)-4-methylpentanoyl]-L-tryptophan methylamide]
- Ki: 160 ± 35 nM
